Measured values taken from patent publication US20160333419A1, “GENE SIGNATURES ASSOCIATED WITH SENSITIVITY TO MDM2 INHIBITORS” (DAIICHI SANKYO COMPANY, LIMITED, priority 2014, published 2016).

What was measured:
[1] = system: BFTC-905; test: OncoPanel cytotoxicity assay; type: cell-based; settings: Homo sapiens, 72 hour incubation
Method in brief: (§1)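 Cells grown in RPMI 1640 with 10% FBS (or a special medium) at 37° C, 5% CO2 were treated 24 hours after seeding for 72 hours with 10 concentrations (3.16-fold dilutions, 0.1% DMSO final). Nuclei were dye-stained and imaged; IC50 was fit from percent of control relative cell count.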

[2] = system: BT20; test: OncoPanel cytotoxicity assay; type: cell-based; settings: Homo sapiens, BT-20, 72 hour incubation
Method in brief: as §1

[3] = system: H4; test: OncoPanel cytotoxicity assay; type: cell-based; settings: Homo sapiens, 72 hour incubation
Method in brief: as §1

[4] = system: SK-LMS-1; test: OncoPanel cytotoxicity assay; type: cell-based; settings: Homo sapiens, 72 hour incubation
Method in brief: as §1

[5] = system: CTG-0093 Colorectal; test: Champions TumorGraft model, tumor growth inhibition; type: in vivo, mice; settings: 100 mg/kg/dose p.o./qd × 10, TGI evaluation Day 9
From the text: (§2) Patient-derived xenograft models (Champions TumorGraftTM; Champions Oncology, Inc., Hackensack, N.J.) were used. Champions TumorGraftsTM provide a highly focused, accelerated translational platform, which is based upon the implantation of primary human tumors in immune-deficient mice followed by propagation of the resulting low-passage Champions TumorGraftsTM in a manner that preserves the biological characteristics of the original human tumor. […] The TumorGraftsTM models allow a comparison of gene expression analysis of patients' cancer samples and Champions TumorGraftTM samples by microarray expression analysis. Large numbers (e.g., 30,000) of genes are analyzed. […] Female immunocompromised nu/nu mice (Harlan) between 6-9 weeks of age were housed on irradiated […]-enriched 1⁄8'' corncob bedding ([…]) in individual HEPA ventilated cages (Innocage® IVC, Innovive USA) and were kept on a 12-hour light-dark cycle at 68-74° F. (20-23° C.) and 30-70% humidity. Animals were fed water ad libitum (reverse osmosis, 2 ppm C12) and an irradiated Test rodent diet (Teklad 2919) consisting of 19% protein, 9% fat, and 4% fiber. Animals were implanted bilaterally in the flank region with tumor fragments harvested from tumored host animals, each implanted from a specific passage lot. Pre-study tumor volumes were recorded for each experiment beginning approximately one week prior to its estimated start date. When tumors reached approximately 125-250 mm^3, animals were matched by tumor volume into treatment and control groups, and dosing was initiated (Day 0). Animals in all studies were tagged and followed individually throughout the experiment. Initial dosing for standard agents began on Day 0; animals in all groups were dosed by weight (0.01 ml per gram; 10 ml/kg). Dose concentration(s), route(s) of administration and schedule(s) for each group are listed in the Experimental Design section, wherein “p.o./qd×10” indicates orally (by mouth) daily for 10 days. The experimental design of the human tumor graft model study is presented below in Table 4. “n” indicates the number of animals per group; “ROA” indicates route of administration of the test agent, i.e., the MDM2i drug. Beginning on Day 0, tumor dimensions were measured twice weekly by digital caliper and data including individual and mean estimated tumor volumes (Mean TV±SEM) were recorded for each group. Tumor volume was calculated using the formula (1): TV=width^2×length×0.52. At study completion, percent tumor growth inhibition (% TGI) values were calculated and reported for each treatment group (T) versus control (C) using initial (i) and final (f) tumor measurements and the formula (2): % TGI=1-Tf-Ti/Cf-C. The tumor growth inhibition (TGI) values on the scheduled dates closest to the last administration are summarized Table 5 below. In this example, the study duration was defined by the tumor size of the vehicle control. In some cases, for example, that of CTG-0213 in Table 5, required a longer time period for the tumor to reach a threshold size. As a result, the test animals treated with the MDM2i Compound B were also left for a longer time period, e.g., 40 days in the case of CTG-0213, without MDM2i treatment. […] Thus, the evaluation of TGI was set to be near the end of the treatment period, such as around Day 7-11 (around Day 9).

[6] = system: CTG-0069 Colorectal; test: as above; type: in vivo, mice; settings: 100 mg/kg/dose p.o./qd × 10, TGI evaluation Day 11
From the text: as §2

[7] = system: CTG-0282 Pancreatic; test: as above; type: in vivo, mice; settings: 100 mg/kg/dose p.o./qd × 10, TGI evaluation Day 11
From the text: as §2

[8] = system: CTG-0204 Melanoma; test: as above; type: in vivo, mice; settings: 100 mg/kg/dose p.o./qd × 10, TGI evaluation Day 10
From the text: as §2

[9] = system: CTG-0159 NSCLC; test: as above; type: in vivo, mice; settings: 100 mg/kg/dose p.o./qd × 10, TGI evaluation Day 11
From the text: as §2

[10] = system: CTG-0500 Melanoma; test: as above; type: in vivo, mice; settings: 100 mg/kg/dose p.o./qd × 10, TGI evaluation Day 7
From the text: as §2

[11] = system: CTG-0201 Melanoma; test: as above; type: in vivo, mice; settings: 100 mg/kg/dose p.o./qd × 10, TGI evaluation Day 10
From the text: as §2

[12] = system: CTG-0502 NSCLC; test: as above; type: in vivo, mice; settings: 100 mg/kg/dose p.o./qd × 10, TGI evaluation Day 10
From the text: as §2

[13] = system: CTG-0501 Melanoma; test: as above; type: in vivo, mice; settings: 100 mg/kg/dose p.o./qd × 10, TGI evaluation Day 11
From the text: as §2

[14] = system: CTG-0203 Melanoma; test: as above; type: in vivo, mice; settings: 100 mg/kg/dose p.o./qd × 10, TGI evaluation Day 11
From the text: as §2

[15] = system: CTG-0292 Pancreatic; test: as above; type: in vivo, mice; settings: 100 mg/kg/dose p.o./qd × 10, TGI evaluation Day 11
From the text: as §2

| SMILES | IC50 [1] [µM] | IC50 [2] [µM] | IC50 [3] [µM] | IC50 [4] [µM] | % TGI [5] [%] | % TGI [6] [%] | % TGI [7] [%] | % TGI [8] [%] | % TGI [9] [%] | % TGI [10] [%] | % TGI [11] [%] | % TGI [12] [%] | % TGI [13] [%] | % TGI [14] [%] | % TGI [15] [%] |
| --- | --- | --- | --- | --- | --- | --- | --- | --- | --- | --- | --- | --- | --- | --- | --- |
| CC[C@@H]1CNC2(CC2)CN1C(=O)[C@@H]1C[C@@H](F)CN1C(=O)C1=C(C(C)C)N2C(=N[C@@](C)(c3ccc(Cl)nc3)[C@H]2c2ccc(Cl)c(F)c2)S1 [Compound A, [(5R,6S)-5-(4-Chloro-3-fluorophenyl)-6-(6-chloropyridin-3-yl)-6-methyl-3-(propan-2-yl)-5,6-dihydroimidazo[2,1-b][1,3]thiazol-2-yl][(2S,4R)-2-{[(6R)-6-ethyl-4,7-diazaspiro[2.5]oct-7-yl]carbonyl}-4-fluoropyrrolidin-1-yl]methanone] | > 40 | > 40 | 0.172 | > 40 |  |  |  |  |  |  |  |  |  |  |  |
| CC1(C)CCC2(CC1)N[C@@H](C(=O)N[C@@H]1CC[C@@H](C(N)=O)OC1)[C@H](c1ccnc(Cl)c1F)[C@]21C(=O)Nc2cc(Cl)ccc21 [Compound B, (3′R,4′S,5′R)—N-[(3R,6S)-6-carbamoyltetrahydro-2H-pyran-3-yl]-6″-chloro-4′-(2-chloro-3-fluoropyridin-4-yl)-4,4-dimethyl-2″-oxo-1″,2″-dihydrodispiro[cyclohexane-1,2′-pyrrolidine-3′,3″-indole]-5′-carboxamide] | 8.51 | > 10 | 0.024 | > 10 | 53 | 19 | −30 | 51 | −13 | 104 | −10 | 122 | 101 | 98 | 54 |
